Data on one molecule can be found in patent publication US11497813B2, “Bortezomib conjugates and methods using same” (Frank EBETINO et al., priority 2015, dated 2022).

The subject of this assay is UPS activation. The assay is described as follows: Ub^G76V-GFP reporter cells (GFP+ cells) in osteoclast cultures and on pre-incubated bone slices. In kind it is cell-based, mouse. The following applies: BM cells from Ub^G76V-GFP mice on bone slices pre-incubated with compound. The procedure: FIG. 5A is a scheme of an exemplary synthesis of compound BP-Btz1. FIG. 5B is a series of images of bone slices pre-incubated with 1 μM BP-Btz1, Btz, or bisphosphonate (BP) overnight. Drug solutions were removed and bone slices were washed with PBS extensively. […] (BM) cells from UB^G76V-GFP mice were cultured on bone slices in the presence of M-CSF and RANKL for 9 days. Top images (a): GFP^+ cells were observed under a fluorescence microscope and GFP signal intensity was quantified. Middle images (b): bone slices were fixed and subjected to TRAP staining for osteoclasts (OCs). OC #/slice were counted. Bottom images (c): cells were removed from slices. Toluidine blue staining was performed and pit areas/slice were counted. FIG. 5C is a series of images of murine BM cells cultured and stained for ALP. FIG. 5D is a series of images of human MSCs cultured and stained for ALP. Murine BM cells and human MSCs were cultured in the OB-inducing medium plus different concentrations of BP-Btz1 or Btz for 4 or 6 days, respectively. Cells were stained for ALP. The ALP^+ areas were measured by Image J. *P<0.05 vs. Btz-treated cells.
1. Ub^G76V-GFP mice in B6 background (Stock #008111, Jax lab) are generated using previously described methods (Lindsten et al., 2003, Nat. Biotech. 21:897-902). The Ub^G76V-GFP transgene was designed with a chicken beta-actin promoter and CMV immediate early enhancer upstream of a GFP fused to a mutant ubiquitin moiety (Ub^G76V), a constitutively active proteasome degradation signal. Following proteasome inhibitor administration, Ub^G76V accumulates and GFP fluorescence is readily apparent. GFP^+ OCs were detected at 4 and 8 hrs after adding Btz to OC cultures, which disappeared at 24 hrs. […] 2. OC formation and resorption assays and data analyses are performed as described herein (FIG. 4) and using previously described methods (Zhang et al., 2014, J. Clin. Invest. 124:3200-3214; Xiu et al., 2014, J. Clin. Invest. 124:297-310). […] The number and area of OCs and resorption pits are assessed. The appearance, intensity and distribution of GFP^+ cells on bone slices and plastic surrounding bone slices during OC formation is observed and recorded. 3. OB differentiation. Third passages of BM stromal cells are used as MPCs, as previously described (Shu et al., 2013, J. Bone Min. Res. 28:1925-1935; Zhang et al., 2014, J. Clin. Invest. 124:3200-3214). MPCs are cultured on plastic plates in OB-inducing medium±BP-Btz conjugates, Btz or BP (0.1-100 nM) for 1-3 wks. Plates are subjected to alkaline phosphatase (ALP) and alizarin red staining, and qPCR analyses. Area of ALP^+ and mineralized bone nodule, and the expression levels of OB marker genes (ALP, osteocalcin, Runx2) are measured. GFP^+ cells during OB differentiation are observed as in OCs. In a parallel experiment, human MSCs (from Lonza) are treated with BP-Btz, Btz, or BP in OB-inducing medium and their effects examined on OB differentiation as show in FIGS. 5C and 5D. 4. Western blot/Ub assays. OCPs or MPCs are treated with a preferred dose of leading BP-Btz, Btz and BP. OCP lysates are subjected to Western blot using α-NF-κB members and TRAF6 Abs. OB lysates are subjected to Western blot with α-ubiquitin, Runx2, or JunB Abs, and Ub assays using UbiQapture matrix (Biomol) to pull down Ub-proteins followed by α-Runx2 and JunB Abs using previously described methods (Zhao et al., 2010, J. Bone Min. Res. 25:1246-1256; Zhao et al., 2011, Stem cells 29:1601-1610).

On to `NCC(P(=O)(O)O)P(=O)(O)O` [BP], for which the “GFP+ cells on pre-incubated bone slices” value is reported as “not”.
